Drawing on PMC7366380, “Discovery of a Potent and Selective Covalent Inhibitor and Activity-Based Probe for the Deubiquitylating Enzyme UCHL1, with Antifibrotic Activity” (Journal of the American Chemical Society, 2020), this text covers IC50 for four compounds.

As usually defined, the IC50 is the concentration needed to halve the response being measured.

One assay has as its target T1, USP35 (Homo sapiens, UniProt Q9P2H5).
T1 sequence (Q9P2H5 1-1018): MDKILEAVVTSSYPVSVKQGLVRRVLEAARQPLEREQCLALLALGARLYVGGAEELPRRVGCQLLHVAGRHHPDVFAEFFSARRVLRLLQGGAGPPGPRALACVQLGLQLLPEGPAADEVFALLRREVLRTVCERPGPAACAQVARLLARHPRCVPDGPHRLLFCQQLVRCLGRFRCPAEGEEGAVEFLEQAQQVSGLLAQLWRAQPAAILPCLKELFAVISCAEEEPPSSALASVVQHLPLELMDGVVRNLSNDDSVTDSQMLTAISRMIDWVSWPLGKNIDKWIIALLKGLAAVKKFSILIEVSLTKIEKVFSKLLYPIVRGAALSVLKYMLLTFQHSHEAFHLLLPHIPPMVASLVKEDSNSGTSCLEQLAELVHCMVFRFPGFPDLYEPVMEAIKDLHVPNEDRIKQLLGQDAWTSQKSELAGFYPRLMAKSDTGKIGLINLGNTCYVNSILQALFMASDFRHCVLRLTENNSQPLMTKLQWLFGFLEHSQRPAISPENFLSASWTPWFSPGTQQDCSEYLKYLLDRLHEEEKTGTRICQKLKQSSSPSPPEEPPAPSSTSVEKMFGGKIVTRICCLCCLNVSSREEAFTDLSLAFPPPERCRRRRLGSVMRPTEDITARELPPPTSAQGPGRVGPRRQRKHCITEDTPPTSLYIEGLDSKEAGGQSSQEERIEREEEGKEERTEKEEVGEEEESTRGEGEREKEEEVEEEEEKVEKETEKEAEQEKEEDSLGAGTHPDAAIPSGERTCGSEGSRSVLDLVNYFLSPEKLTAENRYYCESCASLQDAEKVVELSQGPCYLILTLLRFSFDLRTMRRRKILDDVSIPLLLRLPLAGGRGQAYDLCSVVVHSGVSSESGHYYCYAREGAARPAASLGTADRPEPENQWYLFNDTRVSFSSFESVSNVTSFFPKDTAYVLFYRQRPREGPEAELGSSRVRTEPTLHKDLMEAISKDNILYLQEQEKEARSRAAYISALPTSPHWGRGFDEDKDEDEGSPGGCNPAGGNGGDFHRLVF
Briefly: Biochemical DUB selectivity profiling assay: USP35. Conditions: Ub-Lys-TAMRA 50 nM, buffer B; read-out: Biochemical IC50 range, USP35. The method, then:
(§1) DUB Assay Substrate Substrate
(§2) Buffer Concentration (nM) […]
(§3) Sepharose® 4B resin (GE Healthcare).
(§4) 10 kDa molecular weight cut-off (MWCO)).
(§5) Fractions containing protein
(§6) Protein concentration was […]
(§7) reaction volume of 21 μL. […]
(§8) compound (final concentration 5 nM).
(§9) IC50 values were determined
(§10) Biochemical DUB selectivity profiling assays […]
(§11) in 40 µL total reaction volume.

In another assay the target is T2, TRABID (Homo sapiens, UniProt Q9UGI0).
T2 sequence (Q9UGI0 1-708): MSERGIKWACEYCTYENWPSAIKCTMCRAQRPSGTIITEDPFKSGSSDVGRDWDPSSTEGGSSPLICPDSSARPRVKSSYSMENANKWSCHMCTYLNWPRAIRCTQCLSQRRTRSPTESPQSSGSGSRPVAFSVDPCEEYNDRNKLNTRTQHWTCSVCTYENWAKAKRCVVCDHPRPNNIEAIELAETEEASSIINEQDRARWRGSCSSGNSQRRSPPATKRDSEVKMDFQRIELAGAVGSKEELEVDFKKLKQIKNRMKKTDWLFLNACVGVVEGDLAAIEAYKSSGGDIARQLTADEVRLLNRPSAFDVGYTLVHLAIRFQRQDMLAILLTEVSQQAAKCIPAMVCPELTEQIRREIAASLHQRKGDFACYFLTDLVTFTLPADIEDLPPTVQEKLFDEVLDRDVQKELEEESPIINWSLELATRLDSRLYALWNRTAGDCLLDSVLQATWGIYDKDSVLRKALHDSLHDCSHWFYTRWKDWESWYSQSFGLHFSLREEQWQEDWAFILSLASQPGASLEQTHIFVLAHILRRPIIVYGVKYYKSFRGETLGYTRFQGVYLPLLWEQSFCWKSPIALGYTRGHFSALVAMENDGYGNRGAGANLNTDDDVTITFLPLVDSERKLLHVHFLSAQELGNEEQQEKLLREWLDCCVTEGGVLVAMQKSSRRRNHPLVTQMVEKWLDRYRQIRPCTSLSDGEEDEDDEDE
Briefly: Biochemical DUB selectivity profiling assay: TRABID. The note with it: Ub-Rho110 400 nM, buffer B; read-out: Biochemical IC50 range, TRABID. The protocol: as §1, §2, §3, §4, §5, §6, §7, §8, §9, §10, §11

The target of the next assay is USP1 (Homo sapiens, UniProt O94782). Briefly: biochemical.
USP1, sequence (O94782 whole entry, species assumed): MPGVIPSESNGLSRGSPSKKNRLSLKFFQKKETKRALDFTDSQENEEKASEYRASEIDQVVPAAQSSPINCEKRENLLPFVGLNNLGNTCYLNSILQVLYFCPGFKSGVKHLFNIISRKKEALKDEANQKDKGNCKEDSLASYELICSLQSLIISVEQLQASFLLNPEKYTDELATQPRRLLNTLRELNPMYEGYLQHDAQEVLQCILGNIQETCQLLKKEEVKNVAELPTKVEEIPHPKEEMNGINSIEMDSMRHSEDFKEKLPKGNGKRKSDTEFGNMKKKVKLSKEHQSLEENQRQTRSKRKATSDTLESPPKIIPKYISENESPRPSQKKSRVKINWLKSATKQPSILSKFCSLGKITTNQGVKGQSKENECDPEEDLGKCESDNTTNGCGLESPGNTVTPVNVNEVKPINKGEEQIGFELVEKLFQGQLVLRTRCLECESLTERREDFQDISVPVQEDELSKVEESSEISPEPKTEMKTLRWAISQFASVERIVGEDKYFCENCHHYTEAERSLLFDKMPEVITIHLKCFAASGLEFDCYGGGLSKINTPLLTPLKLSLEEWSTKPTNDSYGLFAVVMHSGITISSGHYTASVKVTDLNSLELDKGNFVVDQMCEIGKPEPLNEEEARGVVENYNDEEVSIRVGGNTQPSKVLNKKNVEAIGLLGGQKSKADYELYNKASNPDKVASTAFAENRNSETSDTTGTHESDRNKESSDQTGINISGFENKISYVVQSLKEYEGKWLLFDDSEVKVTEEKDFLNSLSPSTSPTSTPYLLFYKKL
USP1, sequence (Q8TAF3 whole entry partner, species assumed): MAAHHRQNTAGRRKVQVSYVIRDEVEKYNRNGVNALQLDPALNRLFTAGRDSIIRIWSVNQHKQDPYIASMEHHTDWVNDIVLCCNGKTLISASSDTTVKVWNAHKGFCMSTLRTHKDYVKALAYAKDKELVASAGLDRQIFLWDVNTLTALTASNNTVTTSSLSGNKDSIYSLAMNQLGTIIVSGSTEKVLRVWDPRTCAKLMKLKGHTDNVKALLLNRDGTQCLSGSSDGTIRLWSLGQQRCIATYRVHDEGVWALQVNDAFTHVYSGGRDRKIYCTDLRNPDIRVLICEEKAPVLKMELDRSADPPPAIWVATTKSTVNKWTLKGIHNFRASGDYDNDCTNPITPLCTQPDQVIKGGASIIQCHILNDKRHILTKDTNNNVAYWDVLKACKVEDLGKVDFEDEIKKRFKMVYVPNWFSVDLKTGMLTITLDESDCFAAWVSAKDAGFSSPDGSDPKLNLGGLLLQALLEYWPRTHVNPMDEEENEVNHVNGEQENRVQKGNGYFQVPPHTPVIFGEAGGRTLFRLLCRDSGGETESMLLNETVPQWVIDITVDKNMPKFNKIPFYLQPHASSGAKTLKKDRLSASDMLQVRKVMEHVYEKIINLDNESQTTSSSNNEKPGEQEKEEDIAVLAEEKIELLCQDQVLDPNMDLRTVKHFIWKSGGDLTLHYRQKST
A further assay has as its target T3, BAP1 (Homo sapiens, UniProt Q92560).
T3 sequence (Q92560 1-729): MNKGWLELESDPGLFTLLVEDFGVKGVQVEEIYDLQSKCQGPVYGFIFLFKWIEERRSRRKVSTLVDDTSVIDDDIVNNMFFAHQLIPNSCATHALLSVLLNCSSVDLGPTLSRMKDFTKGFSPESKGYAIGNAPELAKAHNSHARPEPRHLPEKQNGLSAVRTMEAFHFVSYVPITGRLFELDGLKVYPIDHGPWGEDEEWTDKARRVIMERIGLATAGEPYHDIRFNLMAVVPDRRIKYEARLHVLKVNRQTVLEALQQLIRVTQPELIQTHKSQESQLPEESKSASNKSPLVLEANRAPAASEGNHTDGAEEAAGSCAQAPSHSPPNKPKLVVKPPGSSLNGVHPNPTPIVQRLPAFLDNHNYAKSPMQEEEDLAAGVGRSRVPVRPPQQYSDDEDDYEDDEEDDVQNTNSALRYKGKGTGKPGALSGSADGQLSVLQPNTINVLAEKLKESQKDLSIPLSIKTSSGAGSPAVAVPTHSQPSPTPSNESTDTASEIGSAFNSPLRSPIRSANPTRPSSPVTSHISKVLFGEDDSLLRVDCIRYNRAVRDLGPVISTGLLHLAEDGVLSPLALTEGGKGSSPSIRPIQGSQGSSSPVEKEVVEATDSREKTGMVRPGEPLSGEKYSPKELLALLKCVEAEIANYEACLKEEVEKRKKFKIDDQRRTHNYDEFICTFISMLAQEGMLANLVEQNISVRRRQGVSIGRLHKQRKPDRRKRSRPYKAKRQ
Briefly: biochemical.

For `N#CN1CCC[C@H]1C(=O)N1CCc2c(-c3c[nH]c4ncccc34)cccc21` [Compound 1], the IC50 on USP35 was over 10 µM; at TRABID it was over 10 µM; against USP1, over 10 µM; at BAP1, 1 to 10 µM.

In the case of `C#Cc1cnc2[nH]cc(-c3cccc4c3CCN4C(=O)[C@@H]3CCCN3C#N)c2c1` [Compound 2], the half-inhibitory concentration (IC50) at USP35 and on TRABID was over 10 µM in each case.

For `N#CN1CCC[C@@H]1C(=O)N1CCc2c(-c3c[nH]c4ncccc34)cccc21` [Compound 3], the IC50 at USP35, on TRABID, on USP1 and at BAP1 was over 10 µM each time.

As for `CC(=O)O/N=C1\C(=O)N(Cc2cc(Cl)ccc2Cl)c2ccc(Cl)cc21` [LDN-57444, reference compound], the 50% inhibitory concentration (IC50) on USP35, at TRABID, at USP1 and at BAP1 was over 10 µM each time.
